Data published in patent US20060234945A1, “Ophthalmic therapeutic composition” (Nihon Tenganyaku Kenkyusho Co., LTD., priority 2002, published 2006).

Key:
corneal epithelium = test: Action on corneal epithelium migration (in vitro), corneal organ culture system; format: cell-based, Japanese white rabbit; settings: rabbit corneal blocks incubated 20 hours in Medium-199 with test compound; FIG. 1, 51.2-512.3 nM; vs control
Procedure: (1) Action on Corneal Epithelium Migration (In Vitro)
Using the cornea of male Japanese white rabbits, the effects on corneal epithelium migration were examined using the migrating length of the corneal epithelium in a corneal organ culture system as an index in accordance with the method of Nishida et al. (J. Cell. Biol., 97, pp. 1653-1657 (1983)).
Corneal blocks (three per group) were cut out from rabbit corneal tissue. These corneal blocks were incubated for 20 hours under the conditions of 37° C. and 5% CO2 in a culture medium (Medium-199) containing the test compound. After incubation, the corneal blocks were fixed in a mixed solution of ethanol and glacial acetic acid (volume ratio of 95:5), embedded in paraffin, and prepared as sections. After deparaffination, the sections were stained with hematoxylin-eosin and the migrating length of the epithelial cell layer was measured under a microscope.

[1] = test system: rabbit corneal wound model; test: Corneal wound healing promotion action 1 (in vivo), approx. 6 mm corneal epithelial abrasion; set-up: species or system Japanese white rabbit
Procedure: (2) Corneal Wound Healing Promotion Action 1 (In Vivo)
Using a male Japanese white rabbit, a wound of approximately 6 mm in diameter was produced in the cornea by inducing corneal epithelial abrasion in accordance with the method of Cintron et al. (Ophthalmic Res., 11, pp. 90-96 (1979)). The wound area was measured using the fluorescein-stained area as an index. The effects of the test compound on corneal wound healing were examined.
The eye drops containing the respective concentrations of the test compound were instilled (30 μl at a time) at 0, 3, 6, 9, 12, 18, 24, 27, 30, 33, 36, 42, and 48 hours after inducing corneal epithelial abrasion. In measuring the wound area, fluorescein staining was carried out and a photograph of the cornea was measured. The fluorescein-stained area of the photographed cornea was computed using an image analysis processing system.
(§1) In Tables 1 and 2, the respective values indicate the mean value±standard deviation (n=6). Statistical analysis was carried out using Dunnett's multiple comparison with respect to PBS with the area of the corneal wound portion immediately after (0 hours after) corneal epithelial abrasion being set to 100% (*p<0.05, ** p<0.01; vs. control).

[2] = test system: rabbit corneal wound model; test: Corneal wound healing promotion action 2 (in vivo), approx. 8 mm corneal epithelial abrasion; set-up: species or system Japanese white rabbit
Procedure: (3) Corneal Wound Healing Promotion Action 2 (In Vivo)
Using the same method as (2) above, corneal epithelial abrasion was induced in a Japanese white rabbit to produce a wound of approximately 8 mm in diameter in the cornea. The wound area was measured using the fluorescein-stained area as an index to examine the effects on corneal wound healing.
The eye drops containing the respective concentrations of the test compound were instilled (25 μl at a time) at 0, 6, 12, 18, 24, 30, 36, 42, 48, and 54 hours after induction corneal epithelial abrasion. In measuring the wound area, fluorescein staining was carried out and a photograph of the cornea was measured. The fluorescein-stained area of the photographed cornea was computed using an image analysis processing system.
as §1, with “Tables 3” for “Tables 1”, “and 4,” for “and 2,”, “to physiological saline” for “to PBS”

Ac-Pro-His-Ser-Arg-Asn-NH2 (Ac-PHSRN-NH2) [PHSRN (SEQ ID NO: 1)]
migration of corneal epithelium (migrating length of epithelial cell layer) (corneal epithelium): significant promotion
Healing ratio (%) ([1]; 2 μM eye drop, 0 hr (baseline)): 0%
Healing ratio (%) ([1]; 2 μM eye drop, 6 hr): 9.66 ± 2.21%
Healing ratio (%) ([1]; 2 μM eye drop, 12 hr): 26.71 ± 2.62%
Healing ratio (%) ([1]; 2 μM eye drop, 24 hr): 61.91 ± 3.08%
Healing ratio (%) ([1]; 2 μM eye drop, 36 hr): 88.08 ± 4.03%
Healing ratio (%) ([1]; 2 μM eye drop, 48 hr): 99.14 ± 1.90%
Healing ratio (%) ([1]; 20 μM eye drop, 0 hr (baseline)): 0%
Healing ratio (%) ([1]; 20 μM eye drop, 6 hr): 10.73 ± 3.21%
Healing ratio (%) ([1]; 20 μM eye drop, 12 hr): 28.01 ± 1.92%
Healing ratio (%) ([1]; 20 μM eye drop, 24 hr): 64.07 ± 3.98%
Healing ratio (%) ([1]; 20 μM eye drop, 36 hr): 89.09 ± 6.42%
Healing ratio (%) ([1]; 20 μM eye drop, 48 hr): 99.15 ± 1.52%
Healing ratio (%) ([1]; 200 μM eye drop, 0 hr (baseline)): 0%
Healing ratio (%) ([1]; 200 μM eye drop, 6 hr): 11.06 ± 3.50%
Healing ratio (%) ([1]; 200 μM eye drop, 12 hr): 28.69 ± 4.10%
Healing ratio (%) ([1]; 200 μM eye drop, 24 hr): 67.70 ± 5.37%
Healing ratio (%) ([1]; 200 μM eye drop, 36 hr): 94.97 ± 4.63%
Healing ratio (%) ([1]; 200 μM eye drop, 48 hr): 100.00 ± 0.00%
Healing ratio (%) ([1]; 2000 μM eye drop, 0 hr (baseline)): 0%
Healing ratio (%) ([1]; 2000 μM eye drop, 6 hr): 11.15 ± 1.25%
Healing ratio (%) ([1]; 2000 μM eye drop, 12 hr): 28.99 ± 2.65%
Healing ratio (%) ([1]; 2000 μM eye drop, 24 hr): 69.49 ± 3.17%
Healing ratio (%) ([1]; 2000 μM eye drop, 36 hr): 95.39 ± 3.06%
Healing ratio (%) ([1]; 2000 μM eye drop, 48 hr): 100.00 ± 0.00%
promotion of wound healing ([1]; instillation of eye drops, 6 mm wound, vs PBS): significant promotion of wound healing
Healing ratio (%) ([2]; 0.04% eye drop, 0 hr (baseline)): 0%
Healing ratio (%) ([2]; 0.04% eye drop, 12 hr): 13.57 ± 3.74%
Healing ratio (%) ([2]; 0.04% eye drop, 18 hr): 29.45 ± 3.29%
Healing ratio (%) ([2]; 0.04% eye drop, 24 hr): 58.71 ± 6.32%
Healing ratio (%) ([2]; 0.04% eye drop, 30 hr): 58.71 ± 6.32%
Healing ratio (%) ([2]; 0.04% eye drop, 36 hr): 70.29 ± 8.38%
Healing ratio (%) ([2]; 0.04% eye drop, 48 hr): 88.27 ± 8.74%
Healing ratio (%) ([2]; 0.04% eye drop, 54 hr): 94.24 ± 6.62%
Healing ratio (%) ([2]; 0.04% eye drop, 72 hr): 98.93 ± 2.16%
promotion of wound healing ([2]; instillation of eye drops, 8 mm wound, vs physiological saline): significant promotion of wound healing

hyaluronic acid [reference compound]
Healing ratio (%) ([2]; 0.3% eye drop, 0 hr (baseline)): 0%
Healing ratio (%) ([2]; 0.3% eye drop, 12 hr): 13.98 ± 4.88%
Healing ratio (%) ([2]; 0.3% eye drop, 18 hr): 28.45 ± 3.37%
Healing ratio (%) ([2]; 0.3% eye drop, 24 hr): 60.78 ± 8.07%
Healing ratio (%) ([2]; 0.3% eye drop, 30 hr): 60.78 ± 8.07%
Healing ratio (%) ([2]; 0.3% eye drop, 36 hr): 71.62 ± 11.02%
Healing ratio (%) ([2]; 0.3% eye drop, 48 hr): 90.19 ± 9.51%
Healing ratio (%) ([2]; 0.3% eye drop, 54 hr): 95.35 ± 6.44%
Healing ratio (%) ([2]; 0.3% eye drop, 72 hr): 99.92 ± 0.22%
